Each block holds one molecule with its values, some of them ahead of it.
Key:
BIK1 (MBP-BIK1) [1] = biological target: T1, BIK1 (MBP-BIK1) (Arabidopsis thaliana, UniProt O48814); test: biotin switch; type: binding; conditions: covalent; NO donor, S-nitrosylates cysteine; HEN buffer pH 7.7, 30 min, dark
T1 construct: coding region of BIK1, HisMBP-tagged (pDEST-HisMBP; a 6xHis version from pDEST17 was also made), tag kept, E. coli BL21(DE3)
T1 sequence (O48814 1-395): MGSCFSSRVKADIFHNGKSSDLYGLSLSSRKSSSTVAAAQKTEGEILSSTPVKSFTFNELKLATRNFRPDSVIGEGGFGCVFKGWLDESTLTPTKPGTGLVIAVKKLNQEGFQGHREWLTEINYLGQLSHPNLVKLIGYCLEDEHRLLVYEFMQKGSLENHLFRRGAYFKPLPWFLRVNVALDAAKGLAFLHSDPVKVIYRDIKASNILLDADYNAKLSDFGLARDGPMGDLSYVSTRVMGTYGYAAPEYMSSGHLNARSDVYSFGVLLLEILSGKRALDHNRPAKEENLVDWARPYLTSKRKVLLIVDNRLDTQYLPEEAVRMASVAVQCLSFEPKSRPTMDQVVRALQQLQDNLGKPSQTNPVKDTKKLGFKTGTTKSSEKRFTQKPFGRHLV

BIK1 (MBP-BIK1) [2] = biological target: T2, BIK1 (MBP-BIK1) (Arabidopsis thaliana, UniProt O48814, K105E); test: biotin switch; type: binding; conditions: covalent; NO donor (donor not named for this figure; GSNO in the same passage); kinase-dead mutant, GSNO gave no autophosphorylation
T2 construct: coding region of BIK1, HisMBP-tagged (pDEST-HisMBP; a 6xHis version from pDEST17 was also made), tag kept, E. coli BL21(DE3)
T2 sequence (O48814 1-395 K105E): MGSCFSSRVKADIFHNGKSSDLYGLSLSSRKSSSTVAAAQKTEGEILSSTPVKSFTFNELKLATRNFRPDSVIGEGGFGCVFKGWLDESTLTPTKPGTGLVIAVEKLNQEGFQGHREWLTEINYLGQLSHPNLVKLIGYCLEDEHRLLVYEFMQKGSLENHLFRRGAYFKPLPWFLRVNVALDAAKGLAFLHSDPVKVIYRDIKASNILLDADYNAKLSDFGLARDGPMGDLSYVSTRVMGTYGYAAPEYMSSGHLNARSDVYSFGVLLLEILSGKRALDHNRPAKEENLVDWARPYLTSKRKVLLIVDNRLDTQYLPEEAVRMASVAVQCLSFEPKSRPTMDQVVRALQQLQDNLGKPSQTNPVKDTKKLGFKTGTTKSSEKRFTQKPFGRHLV

BIK1 (MBP-BIK1) [3] = biological target: T1, BIK1 (MBP-BIK1); test: biotin switch (anti-biotin Western blot); in vitro autophosphorylation assay; type: biochemical; conditions: covalent; NO donor, S-nitrosylates cysteine, reversed by DTT; raises autophosphorylation; HEN buffer pH 7.7, 30 min, dark
[4] = biological target: T3, MBP-BIK1 (recombinant botrytis-induced kinase 1 fused to maltose binding protein) (Arabidopsis (Col-0 cDNA), UniProt O48814 1-395); test: pull-down; GST-RB-N on Glutathione Sepharose 4B incubated with MBP or MBP-BIK1 (untreated or pretreated with 10 uM GSNO or 100 uM DTT); 30 mM Hepes, 100 mM NaCl, 0.2% Triton X-100, pH 7.5; 4°C, 4 hours, dark; anti-MBP immunoblot; conditions: both partners purified
T3 construct: botrytis-induced kinase 1 (BIK1), Arabidopsis; coding region amplified from Col-0 cDNA; The text calls the protein in the pull-down pBIK1 as well; a phosphorylation state of the recombinant protein is not defined; also called recombinant BIK1; pDEST-HisMBP-BIK1; source: E. coli BL21(DE3), purified (amylose magnetic beads)
T3 sequence (looked up): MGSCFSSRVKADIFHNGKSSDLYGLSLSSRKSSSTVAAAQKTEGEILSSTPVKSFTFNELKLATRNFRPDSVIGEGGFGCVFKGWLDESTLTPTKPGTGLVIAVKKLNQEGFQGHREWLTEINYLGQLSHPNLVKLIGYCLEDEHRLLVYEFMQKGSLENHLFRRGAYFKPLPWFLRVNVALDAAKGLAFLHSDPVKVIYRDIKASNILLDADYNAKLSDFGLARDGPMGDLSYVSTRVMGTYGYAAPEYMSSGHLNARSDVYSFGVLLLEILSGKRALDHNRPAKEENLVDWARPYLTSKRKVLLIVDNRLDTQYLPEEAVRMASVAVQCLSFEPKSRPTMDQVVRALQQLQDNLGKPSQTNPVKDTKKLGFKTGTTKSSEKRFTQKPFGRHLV

[5] = biological target: T4, GSNO-pretreated MBP-BIK1 (S-nitrosylated BIK1, BIK1-SNO) (Arabidopsis (Col-0 cDNA), UniProt O48814 1-395, S-nitrosylation by GSNO pre-treatment; the paper assigns S-nitrosylation to Cys80); test: as above; conditions: both partners purified
T4 construct: botrytis-induced kinase 1 (BIK1), Arabidopsis; coding region amplified from Col-0 cDNA; same construct as m1; Same protein as m1 after treatment with the NO donor; which cysteines carried SNO in this sample was not determined in the pull-down itself
T4 sequence (looked up): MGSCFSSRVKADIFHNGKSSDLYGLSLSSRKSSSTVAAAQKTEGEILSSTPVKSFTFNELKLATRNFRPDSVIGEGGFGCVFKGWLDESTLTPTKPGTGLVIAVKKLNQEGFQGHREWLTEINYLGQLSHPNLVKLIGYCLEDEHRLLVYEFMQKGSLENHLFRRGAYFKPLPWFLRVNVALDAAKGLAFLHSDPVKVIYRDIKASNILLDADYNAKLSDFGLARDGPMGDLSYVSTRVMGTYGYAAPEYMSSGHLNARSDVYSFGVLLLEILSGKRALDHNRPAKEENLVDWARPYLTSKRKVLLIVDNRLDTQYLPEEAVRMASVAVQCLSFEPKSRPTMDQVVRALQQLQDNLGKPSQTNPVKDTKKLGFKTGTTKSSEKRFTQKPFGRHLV

Molecule: N[C@@H](CSN=O)C(=O)O [Cys-NO]
- biotin switch (BIK1 (MBP-BIK1) [1]): The natural NO donor, Cys-NO, also S-nitrosylated BIK1 in vitro

Molecule: N[C@@H](CCC(=O)N[C@@H](CSN=O)C(=O)NCC(=O)O)C(=O)O [GSNO]
- biotin switch (BIK1 (MBP-BIK1) [2]): NO induced S-nitrosylation of BIK1^K105E (fig. S6F)
- biotin switch (anti-biotin Western blot); in vitro autophosphorylation assay (BIK1 (MBP-BIK1) [3]): BIK1 was S-nitrosylated in a concentration-dependent fashion by GSNO

- binding result [4]: binds
- binding result [5]: binds
B1: GST-RBOHD-N (GST-tagged N terminus of respiratory burst oxidase homolog D) (domain or fragment, Arabidopsis, UniProt Q9FIJ0 1-376, looked up)
chain: MKMRRGNSSNDHELGILRGANSDTNSDTESIASDRGAFSGPLGRPKRASKKNARFADDLPKRSNSVAGGRGDDDEYVEITLDIRDDSVAVHSVQQAAGGGGHLEDPELALLTKKTLESSLNNTTSLSFFRSTSSRIKNASRELRRVFSRRPSPAVRRFDRTSSAAIHALKGLKFIATKTAAWPAVDQRFDKLSADSNGLLLSAKFWECLGMNKESKDFADQLFRALARRNNVSGDAITKEQLRIFWEQISDESFDAKLQVFFDMVDKDEDGRVTEEEVAEIISLSASANKLSNIQKQAKEYAALIMEELDPDNAGFIMIENLEMLLLQAPNQSVRMGDSRILSQMLSQKLRPAKESNPLVRWSEKIKYFILDNWQR
notes: respiratory burst oxidase homolog D (RBOHD), Arabidopsis; 1128 bp make 376 codons; also called GST-RB-N; N-RBOHD; source: E. coli BL21(DE3), purified (Glutathione Sepharose 4B)
